# Columns and labels:
# [1] = test system: Cryptococcus neoformans (Cr. neoformans) cells (strain MTU13001); assay: In vitro antifungal activity, broth micro-dilution, turbidity at 600 nm; type: cell-based; conditions: YNBPB medium, 35° C., 24 hours, OD600; for IC50: Cryptococcus neoformans, read-out: Inhibition against in vitro cell growth, Cr. neoformans (MTU13001) IC50
# Protocol: In vitro antifungal activity of the bicyclic compounds was determined using the Cryptococcus neoformans (Cr. neoformans) cells (strain MTU13001) according to the broth micro-dilution procedure (National Committee for Clinical Laboratory Standard (1992). Document M27-P). 10^4 cells in […] of YNBPB medium (YNB (Difco), 1% (w/v) dextrose (Wako), 0.25% K2HPO4 (Wako)) containing various concentrations of compounds were dispensed in 96-well plates and incubated at 35° C. for 24 hours. The turbidity of the cell suspension was measured using a Microplate leader (WL320, Bio-Tek Instrument) at 600 nm. Antifungal activity of each compound was indicated as 50% inhibition concentration (IC50) values that was determined by calculation the minimum concentration of the compound required for the 50% reduction of the turbidity (OD600) of cells compared to untreated control cells.
# [2] = Acute toxicity (LD50) by intravenous administration in mice; conditions: mouse, in vivo
# Text: The acute toxicity (LD50) of the representative bicycle compound (Example 42) of the present invention was examined by intravenous administration in mice.
Structure (SMILES),"Inhibition against in vitro cell growth, Cr. neoformans (MTU13001) IC50 [1] [µg/mL]",IC50 [1] [µg/mL],LD50 [2] [mg/kg]
"Cc1c(C2=NC(C(=O)N3CCN(C)CC3)C(CC3CCCCC3)O2)oc2cccc(OCCCNCc3cccnc3)c12 (racemic) [Example 88, dl-[5-Cyclohexylmethyl-2-(3-methyl-4-{3-[(pyridin-3-ylmethyl)-amino]-propoxy}-benzofuran-2-yl)-trans-4,5-dihydro-oxazol-4-yl]-(4-methyl-piperazin-1-yl)-methanone]",5.3,–,–
"Cc1c(COc2ccc(F)cc2F)oc2cccc(OCCCNCc3cccnc3)c12 [Example 12, {3-[2-(2,4-Difluorophenoxymethyl)-3-methyl-benzofuran-4-yloxy]-propyl}-pyridin-3-ylmethyl-amine]",–,4.4,–
"Cc1c(COc2ccc(F)c(F)c2F)oc2cccc(OCCCNCc3cccnc3)c12 [Example 21, {3-[2-(2,3,4-Trifluorophenoxymethyl)-3-methyl-benzofuran-4-yloxy]-propyl}-pyridin-3-ylmethyl-amine]",–,5.8,–
"Cc1c(COc2cccnc2)oc2cccc(OCCCNCc3cccnc3)c12 [Example 31, {3-[3-Methyl-2-(pyridin-3-yloxymethyl)-benzofuran-4-yloxy]-propyl}-pyridin-3-ylmethyl-amine]",–,19,–
"Cc1c(COc2ccc(C#N)cc2)oc2cccc(OCCCNCc3cccnc3)c12 [Example 32, 4-(3-Methyl-4-{3-[(pyridin-3-ylmethyl)-amino]-propoxy}-benzofuran-2-ylmethoxy)-benzonitrile]",–,69,–
"CCOCc1cc2cc(OCc3oc4cccc(OCCCNCc5cccnc5)c4c3C)ccc2o1 [Example 42, [3-[2-(2-Ethoxymethyl-benzofuran-5-yloxymethyl)-3-methyl-benzofuran-4-yloxy]-propyl]-pyridin-3-ylmethyl-amine]",–,2.5,> 50
"Cc1c(COc2ccc3oc(C(C)(C)O)cc3c2)oc2cccc(OCCCNCc3cccnc3)c12 [Example 44-2, 2-[5-(3-methyl-4-{3-[(pyridin-3-ylmethyl)-amino]-propoxy}-benzofuran-2-ylmethoxy)-benzofuran-2-yl]-propan-2-ol]",–,6.1,–
"CCOCc1oc2cccc(OCCCNCc3cccnc3)c2c1C [Example 52, [3-(2-Ethoxymethyl-3-methyl-benzofuran-4-yloxy)-propyl]-pyridin-3-ylmethyl-amine]",–,2.6,–
"Cc1c(CSCCc2ccccc2)oc2cccc(OCCCNC(C)C)c12 [Example 55, Isopropyl-[3-(3-methyl-2-phenethylsulfanylmethyl-benzofuran-4-yloxy)-propyl]-amine]",–,1.8,–
"CCOC(=O)c1ccc(NC(=O)c2oc3cccc(OCCCNC(C)(C)C)c3c2C)cc1 [Example 64, 4-[[4-(3-tert-Butylamino-propoxy)-3-methyl-benzofuran-2-carbonyl]-amino]-benzoic Acid Ethyl Ester]",–,2.1,–
"Cc1c(C(=O)Nc2ccc(N3CCOCC3)cc2)oc2cccc(OCCCNCc3cccnc3)c12 [Example 69, 3-Methyl-4-{3-[(pyridin-3-ylmethyl)-amino]-propoxy}-benzofuran-2-carboxylic Acid (4-morpholin-4-yl-phenyl)-amide]",–,57,–
"CCOC(=O)c1oc2cccc(OCCCNCc3ccc(N(C)C)cc3)c2c1C [Example 99, 4-(3-(4-Dimethylamino-benzylamino)-propoxy)-3-methyl-benzofuran-2-carboxylic Acid Ethyl Ester]",–,1.9,–
"CCOC(=O)c1oc2cccc(OCCCNC3CCN(Cc4ccccc4)CC3)c2c1C [Example 100, 4-(3-(1-Benzyl-piperidin-4-ylamino)-propoxy)-3-methyl-benzofuran-2-carboxylic Acid Ethyl Ester]",–,2.1,–
"Cc1c(C(=O)NCCc2ccccc2)oc2cccc(OCCCNC3CCN(Cc4ccccc4)CC3)c12 [Example 112, 4-[3-(1-Benzyl-piperidin-4-ylamino)-propoxy]-3-methyl-benzofuran-2-carboxylic Acid Phenethyl-amide]",–,3.1,–

# From US6376491B1, “Bicyclic compounds” (Basilea Pharmaceutica AG, priority 1998, dated 2002)
